Literature values as cited in patent publication US20250312313A1, “PHARMACEUTICAL COMPOSITION FOR SUBLINGUAL ADMINISTRATION OF CLONIDINE” (NOVUMGEN LIMITED, priority 2022, published 2025).

Settings: oral

- absorption from the gastrointestinal tract: almost completely absorbed
Structure (SMILES): Clc1cccc(Cl)c1N=C1NCCN1 [Clonidine]
